In BindingDB's records for patent USRE49080 (Novartis AG, 2022):

Molecular target: T1, Sodium/glucose cotransporter 2 (Homo sapiens, UniProt P31639)
T1 sequence (P31639 whole entry): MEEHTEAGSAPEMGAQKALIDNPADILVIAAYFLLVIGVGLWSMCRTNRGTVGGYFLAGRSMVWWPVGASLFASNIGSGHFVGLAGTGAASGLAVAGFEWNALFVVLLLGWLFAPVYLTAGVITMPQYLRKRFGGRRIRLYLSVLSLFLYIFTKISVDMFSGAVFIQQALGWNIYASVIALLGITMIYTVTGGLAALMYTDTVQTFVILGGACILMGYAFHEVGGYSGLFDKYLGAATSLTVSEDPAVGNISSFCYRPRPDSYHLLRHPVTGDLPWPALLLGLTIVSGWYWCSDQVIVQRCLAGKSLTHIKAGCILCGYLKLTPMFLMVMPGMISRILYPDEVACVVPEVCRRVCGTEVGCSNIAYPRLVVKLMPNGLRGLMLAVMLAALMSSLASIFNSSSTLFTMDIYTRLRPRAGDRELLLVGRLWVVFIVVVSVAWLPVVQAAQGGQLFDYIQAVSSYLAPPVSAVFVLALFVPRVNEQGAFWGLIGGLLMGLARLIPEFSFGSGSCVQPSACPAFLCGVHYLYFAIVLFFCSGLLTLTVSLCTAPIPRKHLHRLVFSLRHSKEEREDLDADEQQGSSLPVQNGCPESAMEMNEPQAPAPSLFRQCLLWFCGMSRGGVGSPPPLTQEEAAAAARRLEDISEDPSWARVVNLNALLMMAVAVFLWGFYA
Experiment: Inhibitory Effect on the Sodium-dependent Glucose Co-Transporter SGLT, SGLT1 and SGLT2
Procedure: The SGLT-2 assay is carried out as follows: CHO-hSGLT2 cells are cultivated in Ham's F12 Medium (BioWhittaker) with 10% foetal calf serum and 250 μg/mL zeocin (Invitrogen), and HEK293-hSGLT2 cells are cultivated in DMEM medium with 10% foetal calf serum and 250 μg/mL zeocin (Invitrogen). The cells are detached from the culture flasks by washing twice with PBS and subsequently treating with trypsin/EDTA. After the addition of cell culture medium the cells are centrifuged, resuspended in culture medium and counted in a Casy cell counter. Then 40,000 cells per well are seeded into a white, 96-well plate coated with poly-D-lysine and incubated overnight at 37° C., 5% CO2. […] 250 μl of assay buffer and 5 μl of test compound are then added to each well and the plate is incubated for a further 15 minutes in the incubator. 5 μl of 10% DMSO are used as the negative control. The reaction is started by adding 5 μl of 14 C-AMG (0.05 μCi) to each well. After 2 hours' incubation at 37° C., 5% CO2, the cells are washed again with 250 μl of PBS ([…]) and then lysed by the addition of 25 μl of 0.1 N NaOH (5 min. at 37° C.). 200 μl of MicroScint20 (Packard) are added to each well and incubation is continued for a further 20 min at 37° C.

IC50: 1.4 nM
Structure (SMILES): CN1CCOc2ccc(Cc3cc([C@@H]4O[C@H](CO)[C@@H](O)[C@H](O)[C@H]4O)ccc3Cl)cc21 [USRE49080, Example 11]
